In assay [1] the test system is IL-17a, IFNγ, IL-6, TNFα. As to the kind of experiment: ELISA of cytokines in plasma and brain lysate. In kind it is in vivo, mouse. Here is the method:
Mice were put under general anesthesia by intraperitoneal injection of Ketamine (100 mg/kg, i.p.) and xylazine (10 mg/kg, i.p.). Blood was collected by retro-orbital puncture, using clean heparinized microhematocrit capillary tubes (Fisher Scientific®). Once the tube was withdrawn, slight pressure was applied on the eyelid with gauze to prevent further bleeding. All blood samples were centrifuged at 15,000 g for 3 min at room temperature. For quantification of cytokines in brain lysate, samples were disrupted in cold lysis buffer with protease inhibitor cocktail for 60 seconds using the Micro-Homogenizer (VWR International) and centrifuged for 30 min at 15,000×g to remove insoluble precipitates. All samples were stored at −80° C. until further analysis. Plasma and brain lysate cytokines concentrations were measured using an ELISA kit (Biolgened™), following the manufacturer's instructions.
After four hours of vehicle or LPS administration, mice were anesthetized by intraperitoneal injection of fatal plus (100 mg/kg). All blood samples were centrifuged at 10,000 g for 10 min at 4 C. All samples were stored at −80° C. until further analysis. Cytokines concentrations in plasma were measured using an ELISA kit (IFN-γ; 430804, TNF-α; 430904, IL-6; 431304, IL-17a; 432504, Biolegend®), following the manufacturer's instructions.

Assay [2] deals with MIA offspring. Description: Marble burying assay. Conditions: four hours after LPS. In kind it is in vivo, mouse. Here is the method:
On day 1, mice were tested for their baseline marble burying phenotype. On day 2, four hours prior to beginning the marble burying assay, mice were treated with either LPS or vehicle. Marble burying assay was carried out as described previously^8. Mice were placed into testing arenas (arena size: 40 cm×20 cm×30 cm, bedding depth: 3 cm) each containing 20 glass marbles (laid out in four rows of five marbles equidistant from one another). At the end of the 15 min exploration period mice were carefully removed from the testing cages and the number of marbles buried was recorded. The marble burying index was arbitrarily defined as the following: 1 for marbles covered >50% with bedding, 0.5 for marbles covered <50% with bedding, or 0 for anything less.

Assay [3] has as its system S1DZ neurons. As to the kind of experiment: In vivo electrophysiology, firing rate of S1DZ neurons in awake mice. On the set-up: species or system mouse. Here is the method: Electrophysiological experiments were conducted in head-fixed mice trained to walk on a rotating running wheel. Prior to training, mice were implanted with custom crowns permitting head-fixing above the wheel and allowed to recover for one week before training. Mice were trained to walk on the wheel for three 10 min sessions daily for at least one week. Following training, mice were implanted with a multi-electrode array targeting the S1DZ and allowed to recover before testing. To assess IL-17a dependence of LPS-induced changes in neural activity, mice were injected i.p. with control antibodies or blocking antibody against IL-17a (1 mg/mouse), 30 min prior to i.p. vehicle or LPS injection. Baseline neural activity was measured while mice were running on the wheel immediately prior to the first injection. Following the first injection, mice were returned to their home cage. Post-injection (Test) neural activity during wheel running was measured 4 hrs after vehicle or LPS injection.
Custom multi-electrode array scaffolds (drive bodies) were designed using 3D CAD software (SolidWorks®) and printed in Accura 55 Plastic™ (American Precision Prototyping®) as described previously^31,32. […]
Firing rate was calculated across one second time windows during which animals were walking stably on the rotating wheel averaged across 25-50 trials per condition. […]

“Also recorded” adds a separate entry of the source.

On to lipopolysaccharide [LPS], for which the “IL-17a in the brain” value in assay [1] (IFNγ KO MIA offspring, LPS treatment) is given as “no longer detectable”. Besides, the “IL-17a and IFNγ levels in the brain” value in assay [1] (MIA offspring injected with LPS, brain lysate) is on record as “elevated levels of IL-17a, but not IFNγ, in the brain”. In assay [1] (MIA offspring, LPS i.p.), the “plasma levels of IFNγ, IL-6, TNFα and IL-17a” value is “increased plasma levels of inflammatory cytokines; also recorded: robust increase in plasma levels of IFNγ, IL-6, TNFα and IL-17a”. The “plasma/blood levels of inflammatory cytokines (IL-17a, IFNγ)” value in assay [1] (PBS (control) offspring, LPS 50 μg/kg i.p.) was “insufficient to produce high levels of inflammatory cytokines; also recorded: failed to increase IL-17a and IFNγ levels in the blood”. In assay [1] (PBS, MIA, WT and monogenic mutant mice (FIG. 23A), four hours after LPS), the “plasma levels of IFN-γ, IL-6, and TNF-α” value was “robust increase in plasma levels of IFN-γ, IL-6, and TNF-α”. In assay [1] (four hours after LPS), the “plasma/blood IL-17a, MIA offspring vs monogenic mutant mice and controls” value is reported as “did not induce comparable amounts of interleukin-17a (IL-17a) as in MIA offspring; also recorded: prominently upregulated in MIA offspring, but not in monogenic mutant mice or in control animals; also recorded: increase in IL-17a levels in the blood selectively in MIA offspring, but not in other monogenic mutant mice”. The marble burying behavior result in assay [2] is reported as “rescued an enhanced marble burying behavior”. Also, in assay [3] (MIA offspring, 4 hrs after LPS), the “overall firing rate of S1DZ neurons” value is reported as “a decrease in overall firing rate was observed”. Besides, the “firing rate in the S1DZ” value in assay [3] (control (PBS) offspring) is “Neither LPS nor IL-17a blocking antibody treatment changed the firing rate”.

The values above are taken from patent US20220072101A1, “HARNESSING INFLAMMATION TO TREAT NEURODEVELOPMENTAL DISORDERS” (President and Fellows of Harvard College, priority 2019, published 2022).
